Source: patent US20180256673A1, “METHODS FOR TREATING FUNGAL INFECTIONS” (priority 2015, published 2018)
In brackets after ≈: the same amount, converted by molar mass. Starred links: 1 amine or outer side, 2 acyl side, 3 side chain; linkers in the order of their positions; H or OH if unused. Positions of bridges follow the written chain, without caps; N, C: chain ends. Non-standard residues stand in square brackets, D forms with d. Residues, ends and D or L forms follow the SMILES beside them. *: point of attachment. hTyr(3S-OH,4S-OH,3'-OSO3H) = N[C@H](C(=O)O)[C@H](O)[C@@H](O)c1ccc(O)c(OS(=O)(=O)O)c1; Orn(4R-OH,5R-OH) = O=C([C@H](C[C@@H](O)[C@@H](O)N[*:3])N[*:1])[*:2]; Pro(3S-OH,4S-Me) = C[C@H]1CN[C@H](C(=O)O)[C@H]1O; X1 = CCCCCOc1ccc(-c2cc(-c3ccc(C(=O)*)cc3)no2)cc1; Gln(3R-OH) = NC(=O)C[C@@H](O)[C@H](N)C(=O)O; Hyp = O=C(O)[C@@H]1C[C@@H](O)CN1

Assays:
[1] = system: C. albicans; experiment: Mutant prevention concentration (MPC) determination; assay type: cell-based, Candida albicans; details: wild-type isolates; 24 hr, ~1×10^7 CFU/mL
[2] = system: C. albicans; experiment: Antifungal susceptibility testing (CLSI M27-S4), WT and echinocandin-resistant isolates; details: for MIC median (range): 24 hr
Protocol: (§1) Antifungal susceptibility testing. Antifungal susceptibility testing was performed in triplicate for a collection of 95 Candida strains (20 C. albicans, 20 C. glabrata, 2 C. dubliniensis, 15 C. krusei, 19 C. parapsilosis, and 19 C. tropicalis) that included 30 isolates showing an echinocandin resistance (ER) phenotype (caspofungin-resistant) in accordance with the guidelines described in the Clinical and Laboratory Standards Institute (CLSI) document M27-S4. […] Stock solutions of the drugs were kept at −86° C.

[3] = system: C. tropicalis vaginal isolates; experiment: Susceptibility testing of VVC clinical isolates at pH 7 and 4 (CLSI M27-A3); assay type: cell-based; details: Candida tropicalis
[4] = biological target: 1,3-β-D-glucan synthase from C. albicans (Candida albicans, UniProt O13428); experiment: Glucan synthase (GS) inhibition assay
[5] = biological target: 1,3-β-D-glucan synthase from C. albicans (Candida albicans, UniProt O13428, F641S); experiment: Glucan synthase (GS) inhibition assay; details: IC50, DPL18; Fks1 F641S
[6] = system: Candida parapsilosis; experiment: Broth microdilution of invasive fungal isolates (CLSI M27-A3/M38-A2); assay type: cell-based
[7] = system: Candida orthopsilosis; experiment: as above; assay type: cell-based
[8] = system: C. tropicalis; experiment: Antifungal susceptibility testing (CLSI M27-S4), WT and echinocandin-resistant isolates; details: 24 hr
Protocol: as §1

[9] = system: C. glabrata vaginal isolates; experiment: Susceptibility testing of VVC clinical isolates at pH 7 and 4 (CLSI M27-A3); assay type: cell-based, Candida glabrata; details: Nakaseomyces glabratus
[10] = system: C. parapsilosis; experiment: Antifungal susceptibility testing (CLSI M27-S4); details: WT (19 isolates); 24 hr
Protocol: as §1

[11] = system: Candida tropicalis; experiment: Broth microdilution of invasive fungal isolates (CLSI M27-A3/M38-A2); assay type: cell-based
[12] = system: Candida albicans; experiment: as above; assay type: cell-based
[13] = system: C. glabrata; experiment: Mutant prevention concentration (MPC) determination; assay type: cell-based, Candida glabrata; details: wild-type isolates; 24 hr, ~1×10^7 CFU/mL

Sequence of 1,3-β-D-glucan synthase from C. albicans (Candida albicans, UniProt O13428, F641S) (O13428 entry or part of it F641S): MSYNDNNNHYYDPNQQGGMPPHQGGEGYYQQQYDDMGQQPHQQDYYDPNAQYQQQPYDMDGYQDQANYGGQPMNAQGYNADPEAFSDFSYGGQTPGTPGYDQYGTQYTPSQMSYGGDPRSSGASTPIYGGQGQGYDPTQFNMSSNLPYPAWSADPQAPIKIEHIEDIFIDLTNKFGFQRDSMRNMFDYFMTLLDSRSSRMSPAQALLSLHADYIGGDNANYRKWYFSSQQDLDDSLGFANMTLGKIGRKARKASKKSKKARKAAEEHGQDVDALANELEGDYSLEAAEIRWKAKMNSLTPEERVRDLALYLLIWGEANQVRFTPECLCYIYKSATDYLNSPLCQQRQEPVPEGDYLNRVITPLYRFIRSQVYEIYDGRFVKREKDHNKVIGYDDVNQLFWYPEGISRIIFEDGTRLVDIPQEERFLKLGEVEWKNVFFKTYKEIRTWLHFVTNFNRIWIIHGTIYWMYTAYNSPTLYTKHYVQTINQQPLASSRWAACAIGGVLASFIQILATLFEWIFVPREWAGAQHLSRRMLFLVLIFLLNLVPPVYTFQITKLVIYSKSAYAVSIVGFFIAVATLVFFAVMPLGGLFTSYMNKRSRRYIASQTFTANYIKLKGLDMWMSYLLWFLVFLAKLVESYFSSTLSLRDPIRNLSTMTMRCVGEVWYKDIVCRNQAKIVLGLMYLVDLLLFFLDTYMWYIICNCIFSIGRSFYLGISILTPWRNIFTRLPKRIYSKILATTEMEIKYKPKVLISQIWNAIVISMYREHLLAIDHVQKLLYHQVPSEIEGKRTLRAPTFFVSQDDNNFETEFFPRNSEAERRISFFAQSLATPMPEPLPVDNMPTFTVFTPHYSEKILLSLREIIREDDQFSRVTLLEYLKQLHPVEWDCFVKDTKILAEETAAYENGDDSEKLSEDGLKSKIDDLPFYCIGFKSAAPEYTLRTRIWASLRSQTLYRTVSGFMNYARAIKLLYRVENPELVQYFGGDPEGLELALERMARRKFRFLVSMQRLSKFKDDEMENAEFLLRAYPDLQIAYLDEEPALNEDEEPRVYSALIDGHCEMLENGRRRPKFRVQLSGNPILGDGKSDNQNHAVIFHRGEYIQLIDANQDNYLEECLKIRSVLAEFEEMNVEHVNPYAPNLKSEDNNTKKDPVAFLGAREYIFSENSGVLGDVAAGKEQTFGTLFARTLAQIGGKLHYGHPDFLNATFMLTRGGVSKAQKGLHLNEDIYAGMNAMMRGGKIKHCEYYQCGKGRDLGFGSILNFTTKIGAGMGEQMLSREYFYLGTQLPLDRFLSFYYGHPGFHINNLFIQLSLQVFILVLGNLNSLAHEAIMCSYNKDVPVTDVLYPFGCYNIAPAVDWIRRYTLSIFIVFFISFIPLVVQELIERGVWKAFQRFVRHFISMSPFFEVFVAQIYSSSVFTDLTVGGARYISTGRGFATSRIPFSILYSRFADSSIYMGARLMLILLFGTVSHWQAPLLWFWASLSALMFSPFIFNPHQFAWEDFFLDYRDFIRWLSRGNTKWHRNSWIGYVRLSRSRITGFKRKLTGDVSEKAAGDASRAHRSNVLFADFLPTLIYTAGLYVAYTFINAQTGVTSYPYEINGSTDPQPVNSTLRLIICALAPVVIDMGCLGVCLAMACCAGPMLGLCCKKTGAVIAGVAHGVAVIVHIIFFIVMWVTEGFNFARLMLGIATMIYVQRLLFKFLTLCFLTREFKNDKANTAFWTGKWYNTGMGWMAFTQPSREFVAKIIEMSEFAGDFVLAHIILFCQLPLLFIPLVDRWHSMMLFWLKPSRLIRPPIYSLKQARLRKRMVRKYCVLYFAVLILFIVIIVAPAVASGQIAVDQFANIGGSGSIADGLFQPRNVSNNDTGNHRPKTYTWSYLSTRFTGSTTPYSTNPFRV

## CCCCCOc1ccc(-c2cc(-c3ccc(C(=O)N[C@H]4C[C@@H](O)[C@@H](O)NC(=O)[C@@H]5[C@@H](O)[C@@H](C)CN5C(=O)[C@H]([C@H](O)CC(N)=O)NC(=O)[C@H]([C@H](O)[C@@H](O)c5ccc(O)c(OS(=O)(=O)O)c5)NC(=O)[C@@H]5C[C@@H](O)CN5C(=O)[C@H]([C@@H](C)O)NC4=O)cc3)no2)cc1 [MCF, micafungin] (X1-[Orn(4R-OH,5R-OH)]T[Hyp][hTyr(3S-OH,4S-OH,3'-OSO3H)][Gln(3R-OH)][Pro(3S-OH,4S-Me)]; lactam 1-C)
[1]
  MPC: 16 µg/mL
[2]; C. albicans ER isolates
  % of ER isolates with an MIC of ≤0.5 mg/L: 40%
[2]; ER (10 isolates)
  MIC median (range): 0.50 (0.03-4) mg/L
[2]; WT (10 isolates)
  MIC median (range): <0.03 (<0.03)^ mg/L
[3]; 24 h, pH 4
  MIC90: 0.06 µg/mL (≈ 0.0472 µM)
[3]; 24 h, pH 7
  MIC90: 0.016 µg/mL (≈ 0.0126 µM)
[3]; 48 h, pH 4
  MIC90: 0.06 µg/mL (≈ 0.0472 µM)
[3]; 48 h, pH 7
  MIC90: 0.03 µg/mL (≈ 0.0236 µM)
[4]; IC50, DPL1002, WT
  IC50: 13.9 nM
[4]; IC50, glucan synthase, ATCC 90028, WT
  IC50: 14.2 nM
[4]; glucan synthase, DPL22, Fks1p S645P/S
  IC50: 193 nM
[5]
  IC50: 1400 nM
[6]; 92 isolates
  Cumulative % of isolates inhibited at MIC 0.5 μg/mL: (10.9) %
  Cumulative % of isolates inhibited at MIC 1 μg/mL: (72.8) %
  Cumulative % of isolates inhibited at MIC 2 μg/mL: (100.0) %
  Number of isolates inhibited at MIC 0.5 μg/mL: 10
  Number of isolates inhibited at MIC 1 μg/mL: 57
  Number of isolates inhibited at MIC 2 μg/mL: 25
[6]; Lodderomyces parapsilosis
  MIC50: 1 µg/mL (≈ 0.787 µM)
  MIC90: 2 µg/mL (≈ 1.57 µM)
[7]; 10 isolates
  Cumulative % of isolates inhibited at MIC 0.12 μg/mL: (20.0) %
  Cumulative % of isolates inhibited at MIC 0.25 μg/mL: (40.0) %
  Cumulative % of isolates inhibited at MIC 0.5 μg/mL: (70.0) %
  Cumulative % of isolates inhibited at MIC 1 μg/mL: (100.0) %
  Number of isolates inhibited at MIC 0.12 μg/mL: 2
  Number of isolates inhibited at MIC 0.25 μg/mL: 2
  Number of isolates inhibited at MIC 0.5 μg/mL: 3
  Number of isolates inhibited at MIC 1 μg/mL: 3
[7]; Lodderomyces orthopsilosis
  MIC50: 0.5 µg/mL (≈ 0.394 µM)
  MIC90: 1 µg/mL (≈ 0.787 µM)
[8]; ER (4 isolates)
  MIC median (range): 2.00 (1-4) mg/L
[8]; WT (15 isolates)
  MIC median (range): 0.03 (0.03)^ mg/L
[9]; 24 h, pH 4
  MIC90: 0.016 µg/mL (≈ 0.0126 µM)
[9]; 24 h, pH 7
  MIC90: 0.008 µg/mL (≈ 0.0063 µM)
[9]; 48 h, pH 4
  MIC90: 0.03 µg/mL (≈ 0.0236 µM)
[9]; 48 h, pH 7
  MIC90: 0.016 µg/mL (≈ 0.0126 µM)
[10]
  MIC median (range): 4 (1-4) mg/L
[11]; 51 isolates
  Cumulative % of isolates inhibited at MIC 0.015 μg/mL: (31.4) %
  Cumulative % of isolates inhibited at MIC 0.03 μg/mL: (84.3) %
  Cumulative % of isolates inhibited at MIC 0.06 μg/mL: (100.0) %
  Cumulative % of isolates inhibited at MIC ≤0.008 μg/mL: (2.0) %
  Number of isolates inhibited at MIC 0.015 μg/mL: 15
  Number of isolates inhibited at MIC 0.03 μg/mL: 27
  Number of isolates inhibited at MIC 0.06 μg/mL: 8
  Number of isolates inhibited at MIC ≤0.008 μg/mL: 1
[11]; Candida tropicalis
  MIC50: 0.03 µg/mL (≈ 0.0236 µM)
  MIC90: 0.06 µg/mL (≈ 0.0472 µM)
[12]; 251 isolates
  Cumulative % of isolates inhibited at MIC 0.015 μg/mL: (74.9) %
  Cumulative % of isolates inhibited at MIC 0.03 μg/mL: (100.0) %
  Cumulative % of isolates inhibited at MIC ≤0.008 μg/mL: (6.8) %
  Number of isolates inhibited at MIC 0.015 μg/mL: 171
  Number of isolates inhibited at MIC 0.03 μg/mL: 63
  Number of isolates inhibited at MIC ≤0.008 μg/mL: 17
[12]; Candida albicans
  MIC50: 0.015 µg/mL (≈ 0.0118 µM)
  MIC90: 0.03 µg/mL (≈ 0.0236 µM)
[13]
  MPC: 16 µg/mL
